Source: patent publication US4877774A, “Administration of steroid hormones” (The United States of America as represented by the …, priority 1987, dated 1989)
In brackets after ≈: the same amount, converted by molar mass. Several values for one entry are separate records, joined by “and”; a condition that tells them apart may be missing. Equal entries are not always repeated.

Tests used:
physchem [1] = test: physchem
Procedure: The appropriate proportions in the mixture can be determined by examining the descending curvature of the Bs-type phase solubility of FIG. 1.
The appropriate mixture was determined by examining the descending curvature of the Bs-type phase solubility diagram, as shown in FIG. 1. […] The complex, which precipitated as a microcrystalline powder, was removed by filtration and dried under vacuum at room temperature for 24 hours.

amylases of human saliva = details: cited from earlier work
[2] = human trial; cited from earlier work
physchem [3] = details: water
Procedure: The dissolution rates of testosterone alone or its release from complexes of interest were measured and compared with published data.

## OC[C@H]1O[C@@H]2O[C@H]3[C@H](O)[C@@H](O)[C@@H](O[C@H]4[C@H](O)[C@@H](O)[C@@H](O[C@H]5[C@H](O)[C@@H](O)[C@@H](O[C@H]6[C@H](O)[C@@H](O)[C@@H](O[C@H]7[C@H](O)[C@@H](O)[C@@H](O[C@H]8[C@H](O)[C@@H](O)[C@@H](O[C@H]9[C@H](O)[C@@H](O)[C@@H](O[C@H]1[C@H](O)[C@H]2O)O[C@@H]9CO)O[C@@H]8CO)O[C@@H]7CO)O[C@@H]6CO)O[C@@H]5CO)O[C@@H]4CO)O[C@@H]3CO [gamma-cyclodextrin]
Physchem [1]; water
  solubility: 168 mM (≈ 218 mg/mL)
Amylases of human saliva
  susceptibility to the amylases of human saliva: susceptible

## OC[C@H]1O[C@@H]2O[C@H]3[C@H](O)[C@@H](O)[C@@H](O[C@H]4[C@H](O)[C@@H](O)[C@@H](O[C@H]5[C@H](O)[C@@H](O)[C@@H](O[C@H]6[C@H](O)[C@@H](O)[C@@H](O[C@H]7[C@H](O)[C@@H](O)[C@@H](O[C@H]8[C@H](O)[C@@H](O)[C@@H](O[C@H]1[C@H](O)[C@H]2O)O[C@@H]8CO)O[C@@H]7CO)O[C@@H]6CO)O[C@@H]5CO)O[C@@H]4CO)O[C@@H]3CO [beta-cyclodextrin]
[2]
  administration of testosterone, estradiol, or progesterone: marginal

## C[C@]12CC[C@H]3[C@@H](CCC4=CC(=O)CC[C@@]43C)[C@@H]1CC[C@@H]2O [testosterone]
Physchem [1]; concentration of testosterone in water (without cyclodextrin), 25° C.
  solubility: 130 µM and 37 µg/mL
Physchem [1]; gamma-cyclodextrin, limit value of testosterone concentration, with gamma-cyclodextrin, 25° C.
  solubility: 1210 µM and 350 µg/mL
Physchem [1]; gamma-cyclodextrin, maximal solubilization of testosterone, with gamma-cyclodextrin, 25° C.
  solubility: 8700 µM and 2500 µg/mL
Physchem [3]
  solubility: 37 µg/mL (≈ 128 µM)
